According to PubChem BioAssay (NCI):
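Protocol summary: plate cells (96-well), add compound at 5 concentrations, incubate 48 h, interpolate endpoints linearly. GI50: concentration for 50% inhibition of growth. TGI marks complete inhibition of growth.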

Columns and labels:
Assay in all cases: growth of human tumour cells (NCI), 48 h
[1] = tested on: CCRF-CEM leukemia
[2] = tested on: EKVX NSCLC
[3] = tested on: SNB-75 CNS
[4] = tested on: HCT-15 colon
[5] = tested on: HT29 colon
[6] = tested on: U251 CNS
[7] = tested on: SK-MEL-28 melanoma
[8] = tested on: UO-31 renal
[9] = tested on: K-562 leukemia
[10] = tested on: 786-0 renal
[11] = tested on: NCI-H460 lung
[12] = tested on: NCI-H522 lung
[13] = tested on: UACC-62 melanoma
[14] = tested on: NCI-H226 lung
[15] = tested on: SF-268 CNS
[16] = tested on: SF-295 CNS
[17] = tested on: MALME-3M melanoma
[18] = tested on: HS 578T breast
[19] = tested on: TK-10 renal
[20] = tested on: SK-MEL-2 melanoma
[21] = tested on: SR leukemia
[22] = tested on: HL-60(TB) leukemia
[23] = tested on: T-47D breast
[24] = tested on: OVCAR-8 ovarian
[25] = tested on: LOX IMVI melanoma
[26] = tested on: HCT-116 colon
[27] = tested on: HCC-2998 colon
[28] = tested on: OVCAR-5 ovarian
[29] = tested on: MCF7 breast
[30] = tested on: OVCAR-4 ovarian
[31] = tested on: BT-549 breast
[32] = tested on: COLO 205 colon
[33] = tested on: MDA-MB-435
[34] = tested on: MDA-MB-231 breast
[35] = tested on: SK-OV-3 ovarian
[36] = tested on: DU-145 prostate
[37] = tested on: UACC-257 melanoma
[38] = tested on: PC-3 prostate
[39] = tested on: NCI-H23 lung
[40] = tested on: RXF 393 renal
[41] = tested on: MOLT-4 leukemia
[42] = tested on: NCI/ADR-RES ovarian
[43] = tested on: SN12C renal
[44] = tested on: OVCAR-3 ovarian
[45] = tested on: KM12 colon
[46] = tested on: IGROV1 ovarian
[47] = tested on: RPMI-8226 leukemia
[48] = tested on: HOP-92 NSCLC
[49] = tested on: SF-539 CNS
[50] = tested on: SNB-19 CNS
[51] = tested on: A549 NSCLC
[52] = tested on: A498 renal
[53] = tested on: SK-MEL-5 melanoma
[54] = tested on: M14 melanoma
[55] = tested on: ACHN renal
[56] = tested on: CAKI-1 renal
[57] = tested on: HOP-62 NSCLC
[58] = tested on: SW-620 colon

`O=C(NCc1cccnc1)/C(=C\c1ccc(Br)cc1)S(=O)(=O)c1ccccc1` showed a GI50 [1] of 315 nM, a TGI [1] of 4500 nM and a GI50 [2] of 1300 nM. For the same molecule, the TGI [2] was 2610 nM, the GI50 [3] was 1050 nM and the TGI [3] was 2340 nM. The GI50 [4] was 536 nM, the TGI [4] was 2270 nM and the GI50 [5] was 514 nM. For the same molecule, the TGI [5] was 3920 nM, the GI50 [6] was 774 nM and the TGI [6] was 2230 nM. For the same molecule, the GI50 [7] was 1110 nM, the TGI [7] was 2550 nM and the GI50 [8] was 904 nM. For the same molecule, the TGI [8] was 2210 nM, the GI50 [9] was 423 nM and the TGI [9] was 13000 nM. It also gave a GI50 [10] of 1150 nM, a TGI [10] of 2440 nM and a GI50 [11] of 714 nM. The TGI [11] was 2290 nM, the GI50 [12] was 380 nM and the TGI [12] was 1580 nM. For the same molecule, the GI50 [13] was 1140 nM, the TGI [13] was 2530 nM and the GI50 [14] was 1290 nM. The TGI [14] was 2670 nM, the GI50 [15] was 1000 nM and the TGI [15] was 2820 nM. It also gave a GI50 [16] of 1720 nM, a TGI [16] of 3240 nM and a GI50 [17] of 1130 nM. The TGI [17] was 2580 nM, the GI50 [18] was 1250 nM and the TGI [18] was 5310 nM. For the same molecule, the GI50 [19] was 1500 nM, the TGI [19] was 2910 nM and the GI50 [20] was 1430 nM. The TGI [20] was 3030 nM, the GI50 [21] was 309 nM and the TGI [21] was 2360 nM. For the same molecule, the GI50 [22] was 345 nM, the TGI [22] was 2050 nM and the GI50 [23] was 1040 nM. It also gave a TGI [23] of 3120 nM, a GI50 [24] of 705 nM and a TGI [24] of 3330 nM. The GI50 [25] was 450 nM, the TGI [25] was 1730 nM and the GI50 [26] was 460 nM. It also gave a TGI [26] of 1840 nM, a GI50 [27] of 1510 nM and a TGI [27] of 3000 nM. For the same molecule, the GI50 [28] was 929 nM, the TGI [28] was 2330 nM and the GI50 [29] was 409 nM. For the same molecule, the TGI [29] was 2110 nM, the GI50 [30] was 416 nM and the TGI [30] was 1800 nM. It also gave a GI50 [31] of 913 nM, a TGI [31] of 2210 nM and a GI50 [32] of 1220 nM. For the same molecule, the TGI [32] was 2650 nM, the GI50 [33] was 477 nM and the TGI [33] was 1730 nM. It also gave a GI50 [34] of 705 nM, a TGI [34] of 2100 nM and a GI50 [35] of 2700 nM. For the same molecule, the TGI [35] was 5970 nM, the GI50 [36] was 431 nM and the TGI [36] was 1530 nM. The GI50 [37] was 1250 nM, the TGI [37] was 2680 nM and the GI50 [38] was 1060 nM. It also gave a TGI [38] of 2610 nM, a GI50 [39] of 935 nM and a TGI [39] of 2300 nM. It also gave a GI50 [40] of 413 nM, a TGI [40] of 1420 nM and a GI50 [41] of 419 nM. The TGI [41] was 2950 nM, the GI50 [42] was 1750 nM and the TGI [42] was 5430 nM. The GI50 [43] was 727 nM, the TGI [43] was 2190 nM and the GI50 [44] was 419 nM. The TGI [44] was 1700 nM, the GI50 [45] was 1530 nM and the TGI [45] was 3470 nM. For the same molecule, the GI50 [46] was 636 nM, the TGI [46] was 2110 nM and the GI50 [47] was 408 nM. For the same molecule, the TGI [47] was 2430 nM, the GI50 [48] was 745 nM and the TGI [48] was 2230 nM. It also gave a GI50 [49] of 663 nM, a TGI [49] of 1610 nM and a GI50 [50] of 1430 nM. It also gave a TGI [50] of 2830 nM, a GI50 [51] of 1480 nM and a TGI [51] of 3310 nM. For the same molecule, the GI50 [52] was 1360 nM, the TGI [52] was 2710 nM and the GI50 [53] was 1380 nM. It also gave a TGI [53] of 2690 nM, a GI50 [54] of 1040 nM and a TGI [54] of 2860 nM. It also gave a GI50 [55] of 719 nM, a TGI [55] of 1970 nM and a GI50 [56] of 1020 nM. It also gave a TGI [56] of 2220 nM, a GI50 [57] of 1640 nM and a TGI [57] of 3630 nM. It also gave a GI50 [58] of 416 nM and a TGI [58] of 1850 nM.
